Reference: US11285220B2, “Materials and methods relating to linkers for use in protein drug conjugates” (Iksuda Therapeutics Limited, priority 2014, dated 2022)

Test: Reactivity of PL13 free acid with aspartic acid
Conditions: 10 equivalents Asp, pH 7.0, 18 hours, RT
Experimental: PL13 free acid was treated with 10 equivalents of aspartic acid (Asp) at pH 7.0 and at RT. Analysis was performed by RP-HPLC at gradient of 1% to 50% B over 15 minutes with detection at 254 nm.
50 μL of 2.61 mM PL13 free acid in methanol was mixed with […] of […] in buffer to give a final concentration of 0.42 mM PL13 free acid and 4.2 mM Asp.

C=Cc1cc(C)nc(CCC(=O)O)c1 [PL13 free acid]
stability in the presence of Asp: stable
